Assay results published in publication PMC7024310, “Pyrenosetins A–C, New Decalinoylspirotetramic Acid Derivatives Isolated by Bioactivity-Based Molecular Networking from the Seaweed-Derived Fungus Pyrenochaetopsis sp. FVE-001” (Marine Drugs, 2020).
pIC50: −log10 of the molar value.

How the values were obtained:
[1] = system: Plasmodium falciparum 3D7; set-up: method as in PMID 28901329; settings: cited from earlier work
cancer cell lines = system: cancer cell lines; set-up: method as in PMID 28901329; settings: cited from earlier work
[2] = system: non-cancerous human keratinocyte cell line HaCaT; experiment: CellTiterBlue cell viability assay, non-cancerous keratinocyte line HaCaT (general toxicity); assay type: cell-based; settings: HaCaT cells, 24 h treatment, read-out: IC50 against HaCaT cells
Method: (§1) The crude extracts were initially tested in vitro against 5 human cancer cell lines: colorectal adenocarcinoma cell line HT-29 (DSMZ, Braunschweig, Germany), malignant melanoma cell line A-375 (CLS, Eppelheim, Germany), colon cancer cell line HCT-116 (DSMZ), lung carcinoma cell line A-549 (CLS, Eppelheim, Germany), human breast cancer line MB-231 (CLS), and the non-cancerous human keratinocyte line HaCaT (CLS) at a concentration of 100 µg/mL. The antitumoral activity of the crude extracts was evaluated by monitoring the metabolic activity using the CellTiterBlue Cell Viability Assay (Promega, Mannheim, Germany). HT-29 and HaCaT cells were cultivated in RPMI medium, A-549 and MB-231 cells in DMEM: Ham’s F12 medium (1:1) supplemented with 15 mM HEPES and A-375 and HCT-116 cells in DMEM medium supplemented with 4.5 g/L D-Glucose and 110 mg/L sodium pyruvate. All media were supplemented with L-Glutamine, 10% fetal bovine serum, 100 U/mL penicillin, and […] streptomycin. The cultures were maintained at 37 °C under a humidified atmosphere and 5% CO2. The cell lines were transferred every 3 or 4 days. For experimental procedure, the cells were seeded in 96 well plates at a concentration of 10,000 cells per well. A stock solution of 40 mg/mL in DMSO was prepared of each extract. After 24 h incubation, the medium was removed from the cells and 100 µL fresh medium containing the test samples was added. Each sample was prepared in duplicate once. Doxorubicin as a standard therapeutic drug was used as positive control, 0.5% DMSO and growth media were used as controls. Following compound addition, plates were cultured at 37 °C for 24 h. Afterwards, the assay was performed according to the manufacturer’s instructions and measured using the microplate reader Tecan Infinite M200 at excitation 560 nm and emission of 590 nm. For determination of IC50 values, a dilution series of the extracts was prepared and tested, as described before for the crude extract.

[3] = system: human malignant melanoma cell line A-375; experiment: CellTiterBlue cell viability assay, malignant melanoma cell line A-375; assay type: cell-based; settings: for pIC50: Homo sapiens, A-375 cells, 24 h treatment, CellTiterBlue, read-out: IC50 against A-375 cells
Method: as §1

Molecule	antimalarial activity [1]	activity against cancer cell lines (cancer cell lines)	pIC50 [2]	selectivity index (IC50 value against HaCaT cells / IC50 value against A-375 cells) ([3]; HaCaT vs A-375)	pIC50 [3]
wakodecaline A	moderate antimalarial activity	inactive			
CC(=O)/C=C/[C@H]1[C@H](C(=O)N(C)[C@H](CO)C(=O)O)C(=O)[C@@]2(C)[C@@H]1C(C)=C[C@H]1C[C@@H](C)CC[C@@H]12 [wakodecaline B]	moderate antimalarial activity	inactive			
CC1=C[C@H]2C[C@@H](C)CC[C@@H]2[C@@]2(C)C(=O)[C@@]3(C(=O)[C@@H](CO)N(C)C3=O)[C@H](/C=C/[C@@H](C)O)[C@@H]12 [Compound 2, Pyrenosetin B]			4.46	around 5.6	5.20
CC1=CC2CC(C)CCC2C2(C)C(=O)C3(C(=O)C(CO)N(C)C3=O)C(C=CC(C)O)C12 (stereo not drawn) [Compound 1, Pyrenosetin A]			5.38		5.55
CC(=O)/C=C/[C@@H]1[C@H]2C(C)=C[C@H]3C[C@@H](C)CC[C@@H]3[C@@]2(C)C(=O)[C@@]12C(=O)[C@@H](CO)N(C)C2=O [Compound 3, Pyrenosetin C]			3.84		3.85
COc1cccc2c1C(=O)c1c(O)c3c(c(O)c1C2=O)C[C@@](O)(C(=O)CO)C[C@@H]3O[C@H]1C[C@H](N)[C@H](O)[C@H](C)O1 [Doxorubicin, reference compound]			4.66		6.22
C/C=C/C=C/[C@H]1C(C)=C[C@H]2C[C@@H](C)CC[C@@H]2[C@@]1(C)/C(O)=C1/C(=O)[C@@H](CO)N(C)C1=O [Compound 4, Phomasetin]			4.35		4.43
